# According to a melting point compilation (Tetko et al.; mined from patent text by program, amines drawn as free bases though some values may be those of a salt):
row,melting point,Structure (SMILES)
1,60 to 64 °C,COc1ccc(C2(C#Cc3ccnc(S(C)(=O)=O)n3)CCC(=O)CC2)cc1OC1CCCC1
2,124 to 125 °C,COc1ccc(C(=O)Cc2ccncc2Cl)cc1OC1CCCC1
3,188 to 189 °C,CCn1c2c(c3ccccc3c1=O)C(=O)c1ccccc1-2
4,92 to 96 °C,NC(=O)Cc1ccc(OCC(O)CNCCCn2cnc3ccccc32)cc1 (centres undefined)
5,90.5 to 92.5 °C,CN1CCN(CCCN2N=C3C(=Cc4ccccc4)CSCC3C2c2ccccc2)CC1 (centres undefined)
6,211 to 213 °C,COC(=O)Nc1nc2cc(SCC3CC3(Cl)Cl)ccc2[nH]1 (centres undefined)
7,204 to 205 °C,CCN(CC)c1ccc(F)c2nc(Nc3ccc(Cl)cc3Cl)[nH]c12
8,189 to 190 °C,Cc1c(NC(=O)c2ccc(-c3ccc(F)cc3)cc2)ccc2cc(CN3CCC(CC(=O)N4CCCCC4)CC3)cnc12
9,262 °C,COC(=O)C1=C(C)NC(C)=C([N+](=O)[O-])C1c1cccc2ncc(-c3ccccc3)cc12 (centres undefined)
10,154 to 156 °C,CC(C)NC(=O)N1c2ccc(S(=O)(=O)n3cc(-c4ccccc4)[nH]c3=O)cc2CC1C (centres undefined)
11,131 to 133 °C,Cc1cc(C)nc(N(CSC(=S)N2CCCC2)C(=O)NS(=O)(=O)c2ccccc2Cl)n1
12,203 to 205 °C,CCOC(=O)C(C#N)=C(C)Nc1ccnc(-c2ccncc2)n1
13,162 to 164 °C,COCCn1cc(-c2ccc3nnn(Cc4ccc5ncccc5c4)c3n2)cn1
14,126 to 128 °C,CC(=O)Oc1ccc2c(c1)Cc1cc(C(C)=O)ccc1-2
15,184 to 186 °C,CC(CSC(=O)c1ccccc1)C(=O)N1C(C(=O)O)CC2CCCCC21 (centres undefined)
16,151 to 153 °C,COc1cc2c(cc1C)C1(CO2)C(=O)N(CC2CCCO2)c2ccccc21 (centres undefined)
17,299 to 301 °C,CNc1cc(NS(=O)(=O)c2ccc(N)cc2)nc(N2CCCC2)n1
18,211 to 212 °C,Nc1ccc2oc(-c3ccccc3)c(O)c(=O)c2c1
19,175 to 178 °C,COc1ccc(Br)cc1-c1nc2ccc(OC(F)(F)F)cc2[nH]1
20,121 to 122 °C,N#Cc1cccc(CN2CCc3ccc(C(=O)CCCC4CCN(Cc5ccccc5Cl)CC4)cc3CC2)c1
21,122 to 124 °C,O=C(N[C@H]1CCN(CCc2ccc(F)cc2)C1)C(C1CCCCC1)C1CCCCC1

row,melting point,Structure (SMILES)
1,191 to 193 °C,OCCOc1nccc(-c2c(-c3ccc(F)cc3)ncn2C2CCC(O)CC2)n1 (centres undefined)
2,100 to 102 °C,CCC(CC)c1nc(-c2ccncc2)c(-c2ccc(Cl)cc2)n1C
3,104 to 106 °C,CCN(C1CC(C)(C)Oc2ccc(OCc3ccccc3)cc21)S(C)(=O)=O (centres undefined)
4,108 to 110 °C,Cc1c(-c2ccccc2)sc2ccc(Cl)cc12
5,138 °C,O=Cn1cc(Cl)c(-c2cccc(Cl)c2[N+](=O)[O-])c1
6,127 to 133 °C,O=C(CCCN1CCOCC1)Nc1cccc(-c2ccnc3c(C(=O)c4cccs4)cnn23)c1
7,56 to 58 °C,CCc1cc2c(Sc3ccc(C)cc3)ncnc2s1
8,212 to 214 °C,CNC(=O)c1ccc(-c2ccc3nnn(Cc4ccc5ncccc5c4)c3n2)cc1F
9,136 to 137 °C,CC(=O)N1C(=O)C(C(=O)Cc2cccs2)c2ccccc21 (centres undefined)
10,198 to 201 °C,CC(=O)Nc1cccc(-c2ccc3nnn(Cc4ccc5ncccc5c4)c3n2)c1
11,196 to 198 °C,COc1cn(-c2ccc(I)cc2F)nc(C(C)=O)c1=O
12,> 275 °C,CCOC(=O)NC(=N)c1ccc(N2CCN(c3ccc(CCC(=O)OC)cc3)S2(=O)=O)cc1
13,160 °C,CC(C)c1cccc(S(=O)(=O)n2c(CCCC(=O)O)cc3cc(C(F)(F)F)ccc32)c1
14,123 to 125 °C,COc1cc2c(cc1OC)-c1c(-c3ccccc3)sc(=N)n1CC2
15,264 °C,COc1ccc(C(=O)Sc2ccc(C(=O)O)cc2)cc1C12CC3CC(CC(C3)C1)C2
16,244 °C,Cn1c(=O)c2c(NN)nccc2n(C)c1=O
17,190 to 192 °C,CCOC(=O)c1cn(C2CC2)c2cc(C3=CCN(C(C)=O)CC3)c(F)cc2c1=O
18,> 260 °C,Nc1nc2cc(CO)ccc2n1Cc1cccc2cccnc12
19,75 to 77 °C,CCOC(=O)c1noc(-c2ccc([N+](=O)[O-])cc2)n1
20,236 to 238 °C,O=C(O)c1ccc(OCC2CN(c3ccc([N+](=O)[O-])cc3)C(=O)O2)cc1 (centres undefined)
21,219 to 220 °C,O=C(NC(=O)c1ccccc1Cl)Nc1cnc(C(F)(F)F)cn1

# The remaining lines, values behind:
row,Structure (SMILES),melting point
1,O=[N+]([O-])c1cccc(Oc2ccc(Oc3cccc([N+](=O)[O-])c3)cc2)c1,158 to 160 °C
2,CCCCCC#CCC#CCC#CCC#CCO,54 to 56 °C
3,Cc1cc(O)nc(SCC(N)=O)n1,238 to 240 °C
4,Fc1ccc(C=Cc2ccc(C3COC(c4c(F)cccc4F)=N3)cc2)cc1 (centres undefined),154 to 156 °C
5,COC(=O)COc1ccc(OCC(=O)OC)cc1,96 to 98 °C
6,ClCCCCn1c2c(c3ccccc31)CCSc1ccccc1-2,75 °C
7,FC(F)(F)c1onc(-c2ccc(Cl)o2)c1-c1ccccc1,55 to 57 °C
8,CO[C@H]1CC[C@H]([C@H]2CC[C@H](CCC3OCCO3)CC2)CC1,74 °C
9,CNC(=O)Oc1ccc(NC(=O)C(Cl)Cl)c(C)c1,199 to 201 °C
10,COc1ccc(F)c([C@@H]2C[C@H]2CNC(=O)C(C)C)c1 (relative stereo),56 to 57 °C
11,OC(CN1CCC(c2ccc(F)cc2)CC1)CN1CCC(c2ccc(F)cc2)CC1,79 to 80 °C
12,CC(C)CC1(C(CC(C)Sc2cccs2)C(=O)NO)CCN(CCc2ccccc2)C1=O (centres undefined),104 to 105 °C
13,N#CC1(C#N)C2CC(C(Cl)C2Cl)C1(Cl)Cl (centres undefined),126 °C
14,Cc1cc2c(c(C3=NNC(=O)CC3)c1)OCC(=O)N2,266 to 270 °C
15,C=CCOc1ccc(C(=O)C=Cc2cc(OC)c(CCCC)c(OC)c2)cc1,74 to 75 °C
16,COc1nc2cc(F)cc(C)c2nc1OC,107 to 109 °C

row,Structure (SMILES),melting point
1,COc1cc2c(cc1OC)CN(CN1CCc3cc(OC)c(OC)cc3C1)CC2,126 °C
2,CC(C)(C)OC(=O)NCCCCCCO,36 to 37 °C
3,COC(=O)Nc1ccc(Br)cn1,191 to 192 °C
4,Oc1ccc(-c2ncco2)cc1,167 to 168 °C
5,CC(C)(C)OC(=O)COc1ccc(NC(=O)NC(=O)c2ccc(C(N)=S)nc2)cc1,248 to 249 °C
6,CC1=CC(O)C(O)C(C)(C)CC1OC(=O)c1ccccc1 (centres undefined),94 to 96 °C
7,Oc1ccc(-c2nnc(CSCCCCOc3ccccc3)o2)cc1,129 to 130 °C
8,CCSc1nc(O)nn1C(C)C,109 to 114 °C
9,N#Cc1cc(O)cc(F)c1,138 to 139 °C
10,CCCCc1nc(CC(=O)O)c(-c2ccco2)o1,62 to 63 °C
11,CCCn1ncnc1COc1nc2c(nnn2-c2ccccc2)c2ccccc12,154 to 156 °C
12,N#Cc1ccc(NC(=O)NC(=O)c2ccccc2Cl)c(Cl)c1Cl,278 to 282 °C
13,O=C(O)c1cc(F)c(F)c(Br)c1Cl,138 to 140 °C
14,CN(C)c1ccc(C(=O)C#Cc2cccc(OCc3ccccc3)c2)cc1,134 to 136 °C
15,CCC1(C)SC(C)N=C1C (centres undefined),82 °C
16,CCCCC12CCC3C4CCC(=O)C=C4CCC3C1CCC2(O)CC (centres undefined),78 to 80 °C
